In the NIST ThermoML archive (doi:10.1016/j.jct.2008.08.013):
± gives the expanded uncertainty stated by the source.

Experiment: xn = mol fraction of the nth substance listed
Settings: 101 kPa, Liquid, Vibrating tube method

Nc1ccccc1 [aniline] + ClCCl
mass density (288.15 K, x2 = 0.0218): 1030.69 ± 0.1 kg/m3
mass density (288.15 K, x2 = 0.1003): 1048.42 ± 0.1 kg/m3
mass density (288.15 K, x2 = 0.2004): 1072.39 ± 0.11 kg/m3
mass density (288.15 K, x2 = 0.2507): 1085.02 ± 0.11 kg/m3
mass density (288.15 K, x2 = 0.2992): 1097.6 ± 0.11 kg/m3
mass density (288.15 K, x2 = 0.3502): 1111.25 ± 0.12 kg/m3
mass density (288.15 K, x2 = 0.3985): 1124.6 ± 0.12 kg/m3
mass density (288.15 K, x2 = 0.4998): 1153.99 ± 0.13 kg/m3
mass density (288.15 K, x2 = 0.5529): 1170.24 ± 0.13 kg/m3
mass density (288.15 K, x2 = 0.6023): 1185.94 ± 0.14 kg/m3
mass density (288.15 K, x2 = 0.6504): 1201.8 ± 0.14 kg/m3
mass density (288.15 K, x2 = 0.6992): 1218.48 ± 0.15 kg/m3
mass density (288.15 K, x2 = 0.7506): 1236.69 ± 0.15 kg/m3
mass density (288.15 K, x2 = 0.8003): 1254.94 ± 0.16 kg/m3
mass density (288.15 K, x2 = 0.8997): 1293.47 ± 0.17 kg/m3
mass density (288.15 K, x2 = 0.9298): 1305.66 ± 0.17 kg/m3
mass density (288.15 K, x2 = 0.9505): 1314.14 ± 0.18 kg/m3
mass density (288.15 K, x2 = 0.9799): 1326.37 ± 0.18 kg/m3
mass density (293.15 K, x2 = 0.0218): 1025.78 ± 0.1 kg/m3
mass density (293.15 K, x2 = 0.1003): 1043.36 ± 0.1 kg/m3
mass density (293.15 K, x2 = 0.2004): 1067.17 ± 0.11 kg/m3
mass density (293.15 K, x2 = 0.2507): 1079.67 ± 0.11 kg/m3
mass density (293.15 K, x2 = 0.2992): 1092.14 ± 0.11 kg/m3
mass density (293.15 K, x2 = 0.3502): 1105.64 ± 0.11 kg/m3
mass density (293.15 K, x2 = 0.3985): 1118.83 ± 0.12 kg/m3
mass density (293.15 K, x2 = 0.4998): 1147.9 ± 0.13 kg/m3
mass density (293.15 K, x2 = 0.5529): 1164 ± 0.13 kg/m3
mass density (293.15 K, x2 = 0.6023): 1179.46 ± 0.14 kg/m3
mass density (293.15 K, x2 = 0.6504): 1195.11 ± 0.14 kg/m3
mass density (293.15 K, x2 = 0.6992): 1211.56 ± 0.14 kg/m3
mass density (293.15 K, x2 = 0.7506): 1229.48 ± 0.15 kg/m3
mass density (293.15 K, x2 = 0.8003): 1247.49 ± 0.16 kg/m3
mass density (293.15 K, x2 = 0.8997): 1285.36 ± 0.17 kg/m3
mass density (293.15 K, x2 = 0.9298): 1297.3 ± 0.17 kg/m3
mass density (293.15 K, x2 = 0.9505): 1305.64 ± 0.17 kg/m3
mass density (293.15 K, x2 = 0.9799): 1317.62 ± 0.18 kg/m3
mass density (298.15 K, x2 = 0.0218): 1021.79 ± 0.1 kg/m3
mass density (298.15 K, x2 = 0.1003): 1039.19 ± 0.1 kg/m3
mass density (298.15 K, x2 = 0.2004): 1062.72 ± 0.1 kg/m3
mass density (298.15 K, x2 = 0.2507): 1075.06 ± 0.11 kg/m3
mass density (298.15 K, x2 = 0.2992): 1087.38 ± 0.11 kg/m3
mass density (298.15 K, x2 = 0.3502): 1100.68 ± 0.11 kg/m3
mass density (298.15 K, x2 = 0.3985): 1113.68 ± 0.12 kg/m3
mass density (298.15 K, x2 = 0.4998): 1142.28 ± 0.12 kg/m3
mass density (298.15 K, x2 = 0.5529): 1158.09 ± 0.13 kg/m3
mass density (298.15 K, x2 = 0.6023): 1173.3 ± 0.13 kg/m3
mass density (298.15 K, x2 = 0.6504): 1188.66 ± 0.14 kg/m3
mass density (298.15 K, x2 = 0.6992): 1204.8 ± 0.14 kg/m3
mass density (298.15 K, x2 = 0.7506): 1222.36 ± 0.15 kg/m3
mass density (298.15 K, x2 = 0.8003): 1239.98 ± 0.15 kg/m3
mass density (298.15 K, x2 = 0.8997): 1277.01 ± 0.16 kg/m3
mass density (298.15 K, x2 = 0.9298): 1288.69 ± 0.17 kg/m3
mass density (298.15 K, x2 = 0.9505): 1296.8 ± 0.17 kg/m3
mass density (298.15 K, x2 = 0.9799): 1308.49 ± 0.17 kg/m3
mass density (303.15 K, x2 = 0.0218): 1017.43 ± 0.09 kg/m3
mass density (303.15 K, x2 = 0.1003): 1034.68 ± 0.1 kg/m3
mass density (303.15 K, x2 = 0.2004): 1057.97 ± 0.1 kg/m3
mass density (303.15 K, x2 = 0.2507): 1070.21 ± 0.1 kg/m3
mass density (303.15 K, x2 = 0.2992): 1082.37 ± 0.11 kg/m3
mass density (303.15 K, x2 = 0.3502): 1095.52 ± 0.11 kg/m3
mass density (303.15 K, x2 = 0.3985): 1108.38 ± 0.11 kg/m3
mass density (303.15 K, x2 = 0.4998): 1136.65 ± 0.12 kg/m3
mass density (303.15 K, x2 = 0.5529): 1152.21 ± 0.13 kg/m3
mass density (303.15 K, x2 = 0.6023): 1167.19 ± 0.13 kg/m3
mass density (303.15 K, x2 = 0.6504): 1182.34 ± 0.13 kg/m3
mass density (303.15 K, x2 = 0.6992): 1198.22 ± 0.14 kg/m3
mass density (303.15 K, x2 = 0.7506): 1215.59 ± 0.14 kg/m3
mass density (303.15 K, x2 = 0.8003): 1232.77 ± 0.15 kg/m3
mass density (303.15 K, x2 = 0.8997): 1269.11 ± 0.16 kg/m3
mass density (303.15 K, x2 = 0.9298): 1280.69 ± 0.16 kg/m3
mass density (303.15 K, x2 = 0.9505): 1288.52 ± 0.17 kg/m3
mass density (303.15 K, x2 = 0.9799): 1299.98 ± 0.17 kg/m3

ClCCl [dichloromethane] + O=[N+]([O-])c1ccccc1
mass density (288.15 K, x1 = 0.021): 1213.16 ± 0.13 kg/m3
mass density (288.15 K, x1 = 0.1053): 1219.99 ± 0.13 kg/m3
mass density (288.15 K, x1 = 0.2003): 1228.35 ± 0.14 kg/m3
mass density (288.15 K, x1 = 0.2499): 1233.02 ± 0.14 kg/m3
mass density (288.15 K, x1 = 0.3003): 1238.01 ± 0.14 kg/m3
mass density (288.15 K, x1 = 0.3521): 1243.35 ± 0.14 kg/m3
mass density (288.15 K, x1 = 0.4025): 1248.78 ± 0.14 kg/m3
mass density (288.15 K, x1 = 0.4492): 1254.01 ± 0.15 kg/m3
mass density (288.15 K, x1 = 0.4975): 1259.65 ± 0.15 kg/m3
mass density (288.15 K, x1 = 0.5512): 1266.13 ± 0.15 kg/m3
mass density (288.15 K, x1 = 0.5995): 1272.2 ± 0.15 kg/m3
mass density (288.15 K, x1 = 0.6495): 1278.7 ± 0.16 kg/m3
mass density (288.15 K, x1 = 0.6999): 1285.45 ± 0.16 kg/m3
mass density (288.15 K, x1 = 0.7496): 1292.42 ± 0.16 kg/m3
mass density (288.15 K, x1 = 0.799): 1299.65 ± 0.16 kg/m3
mass density (288.15 K, x1 = 0.8501): 1307.44 ± 0.17 kg/m3
mass density (288.15 K, x1 = 0.8975): 1315.12 ± 0.17 kg/m3
mass density (288.15 K, x1 = 0.9798): 1329.58 ± 0.18 kg/m3
mass density (293.15 K, x1 = 0.021): 1204.27 ± 0.13 kg/m3
mass density (293.15 K, x1 = 0.1053): 1211.21 ± 0.13 kg/m3
mass density (293.15 K, x1 = 0.2003): 1219.76 ± 0.13 kg/m3
mass density (293.15 K, x1 = 0.2499): 1224.51 ± 0.13 kg/m3
mass density (293.15 K, x1 = 0.3003): 1229.63 ± 0.14 kg/m3
mass density (293.15 K, x1 = 0.3521): 1235.09 ± 0.14 kg/m3
mass density (293.15 K, x1 = 0.4025): 1240.64 ± 0.14 kg/m3
mass density (293.15 K, x1 = 0.4492): 1245.99 ± 0.14 kg/m3
mass density (293.15 K, x1 = 0.4975): 1251.71 ± 0.14 kg/m3
mass density (293.15 K, x1 = 0.5512): 1258.32 ± 0.15 kg/m3
mass density (293.15 K, x1 = 0.5995): 1264.47 ± 0.15 kg/m3
mass density (293.15 K, x1 = 0.6495): 1271.04 ± 0.15 kg/m3
mass density (293.15 K, x1 = 0.6999): 1277.91 ± 0.16 kg/m3
mass density (293.15 K, x1 = 0.7496): 1284.93 ± 0.16 kg/m3
mass density (293.15 K, x1 = 0.799): 1292.18 ± 0.16 kg/m3
mass density (293.15 K, x1 = 0.8501): 1299.97 ± 0.17 kg/m3
mass density (293.15 K, x1 = 0.8975): 1307.6 ± 0.17 kg/m3
mass density (293.15 K, x1 = 0.9798): 1321.91 ± 0.17 kg/m3
mass density (298.15 K, x1 = 0.021): 1199.65 ± 0.12 kg/m3
mass density (298.15 K, x1 = 0.1053): 1206.52 ± 0.12 kg/m3
mass density (298.15 K, x1 = 0.2003): 1214.95 ± 0.13 kg/m3
mass density (298.15 K, x1 = 0.2499): 1219.62 ± 0.13 kg/m3
mass density (298.15 K, x1 = 0.3003): 1224.61 ± 0.13 kg/m3
mass density (298.15 K, x1 = 0.3521): 1229.95 ± 0.13 kg/m3
mass density (298.15 K, x1 = 0.4025): 1235.37 ± 0.14 kg/m3
mass density (298.15 K, x1 = 0.4492): 1240.56 ± 0.14 kg/m3
mass density (298.15 K, x1 = 0.4975): 1246.14 ± 0.14 kg/m3
mass density (298.15 K, x1 = 0.5512): 1252.51 ± 0.14 kg/m3
mass density (298.15 K, x1 = 0.5995): 1258.48 ± 0.15 kg/m3
mass density (298.15 K, x1 = 0.6495): 1264.8 ± 0.15 kg/m3
mass density (298.15 K, x1 = 0.6999): 1271.39 ± 0.15 kg/m3
mass density (298.15 K, x1 = 0.7496): 1278.12 ± 0.16 kg/m3
mass density (298.15 K, x1 = 0.799): 1285 ± 0.16 kg/m3
mass density (298.15 K, x1 = 0.8501): 1292.47 ± 0.16 kg/m3
mass density (298.15 K, x1 = 0.8975): 1299.69 ± 0.17 kg/m3
mass density (298.15 K, x1 = 0.9798): 1313.24 ± 0.17 kg/m3
mass density (303.15 K, x1 = 0.021): 1195.1 ± 0.12 kg/m3
mass density (303.15 K, x1 = 0.1053): 1201.87 ± 0.12 kg/m3
mass density (303.15 K, x1 = 0.2003): 1210.13 ± 0.13 kg/m3
mass density (303.15 K, x1 = 0.2499): 1214.69 ± 0.13 kg/m3
mass density (303.15 K, x1 = 0.3003): 1219.55 ± 0.13 kg/m3
mass density (303.15 K, x1 = 0.3521): 1224.73 ± 0.13 kg/m3
mass density (303.15 K, x1 = 0.4025): 1229.98 ± 0.13 kg/m3
mass density (303.15 K, x1 = 0.4492): 1235.01 ± 0.14 kg/m3
mass density (303.15 K, x1 = 0.4975): 1240.37 ± 0.14 kg/m3
mass density (303.15 K, x1 = 0.5512): 1246.51 ± 0.14 kg/m3
mass density (303.15 K, x1 = 0.5995): 1252.21 ± 0.14 kg/m3
mass density (303.15 K, x1 = 0.6495): 1258.26 ± 0.15 kg/m3
mass density (303.15 K, x1 = 0.6999): 1264.55 ± 0.15 kg/m3
mass density (303.15 K, x1 = 0.7496): 1270.91 ± 0.15 kg/m3
mass density (303.15 K, x1 = 0.799): 1277.46 ± 0.16 kg/m3
mass density (303.15 K, x1 = 0.8501): 1284.49 ± 0.16 kg/m3
mass density (303.15 K, x1 = 0.8975): 1291.27 ± 0.16 kg/m3
mass density (303.15 K, x1 = 0.9798): 1303.98 ± 0.17 kg/m3
